Measured values taken from patent US4123613A, “Substituted pyrazines as inhibitors of platelet aggregation” (Societa Farmaceutici Italia S.p.A., priority 1976, dated 1978).
≈ marks a conversion by molar mass, not a printed value. Like-named read-outs stand apart in the source and are kept apart here.

Tested on: platelet aggregation (rabbit platelets, ADP-induced)
Assay: ADP-induced platelet aggregation in vitro (turbidimetric method, rabbit platelet-rich plasma)
Format: cell-based
Settings: for Percent inhibition of platelets aggregation / inhibition at 25 µg/mL / inhibition at 50 µg/mL / inhibition at 100 µg/mL / inhibition at 200 µg/mL: tartrate salt; for inhibition at 25 µg/mL / inhibition at 50 µg/mL / inhibition at 100 µg/mL / inhibition at 200 µg/mL: Platelet, read-out: Percent inhibition of platelets aggregation
Protocol: In the biological tests hereafter described, the products were assayed as the tartrate salts.
Male rabbits weighing 2.5-3.5 Kg were used. Fifty four ml of blood were withdrawn from the carotid artery of rabbits anaesthetized with ether.
The PRP was obtained by centrifugation at 400 g for 10 minutes. The concentration of the platelets was adjusted to 250,000/mm^3 by diluting the PRP with PPP prepared by a second centrifugation of the blood samples for about 10 minutes at 2000 g.
The aggregation experiments were generally performed within 1-2 h from the time of blood collection.
In the cuvette of the aggregometer, reagents were added as follows: 0.8 ml drug solution or saline, and 0.2 ml ADP, at the molar concentration of 2.2 × 10^-4. The turbidimetry was checked after 11/2, 3 and 6 minutes. The inhibition of the aggregation is given in the table below as percent of ADP controls at the three times.

[1] = 25 γ/ml, 90 seconds after ADP (2.2 × 10^-4)
[2] = 25 γ/ml, 180 seconds after ADP (2.2 × 10^-4)
[3] = 25 γ/ml, 360 seconds after ADP (2.2 × 10^-4)
[4] = 50 γ/ml, 90 seconds after ADP (2.2 × 10^-4)
[5] = 50 γ/ml, 180 seconds after ADP (2.2 × 10^-4)
[6] = 50 γ/ml, 360 seconds after ADP (2.2 × 10^-4)
[7] = 100 γ/ml, 90 seconds after ADP (2.2 × 10^-4)
[8] = 100 γ/ml, 180 seconds after ADP (2.2 × 10^-4)
[9] = 100 γ/ml, 360 seconds after ADP (2.2 × 10^-4)
[10] = 200 γ/ml, 90 seconds after ADP (2.2 × 10^-4)
[11] = 200 γ/ml, 180 seconds after ADP (2.2 × 10^-4)
[12] = 200 γ/ml, 360 seconds after ADP (2.2 × 10^-4)
[13] = inhibition of platelet aggregation, at all three times

SMILES | Percent inhibition of platelets aggregation [1] [%] | Percent inhibition of platelets aggregation [2] [%] | Percent inhibition of platelets aggregation [3] [%] | Percent inhibition of platelets aggregation [4] [%] | Percent inhibition of platelets aggregation [5] [%] | Percent inhibition of platelets aggregation [6] [%] | Percent inhibition of platelets aggregation [7] [%] | Percent inhibition of platelets aggregation [8] [%] | Percent inhibition of platelets aggregation [9] [%] | Percent inhibition of platelets aggregation [10] [%] | Percent inhibition of platelets aggregation [11] [%] | Percent inhibition of platelets aggregation [12] [%] | activity (inhibition of platelet aggregation, in words) (at all three times) | also measured
CO[C@]12C[C@@H](CSc3nccnc3Cl)CN(C)[C@@H]1Cc1cn(C)c3cccc2c13 [355/915, 2-(10'-methoxy-1',6'-dimethylergoline-8'β-methyl)thio-3-chloropyrazine] | 10 | 10 | 10 | 20 | 15 | 25 | 75 | 75 | 80 | 100 | 100 | 100 | very strong activity | ED50 [13]: 55 to 70 µg/mL
CO[C@]12C[C@@H](CNc3cnccn3)CN(C)[C@@H]1Cc1cn(C)c3cccc2c13 [355/895, 2-(10'-methoxy-1',6'-dimethylergoline-8'β-methyl)aminopyrazine] |  |  |  |  |  | 5 | 10 | 12 | 20 | 50 | 55 | 62 | very low activity | 
CO[C@]12C[C@@H](CSc3cnccn3)CN(C)[C@@H]1Cc1cn(C)c3cccc2c13 [355/917, 2-(10'-methoxy-1',6'-dimethylergoline-8'β-methyl)thiopyrazine] |  |  |  |  |  |  |  |  | 10 | 15 | 12 | 35 | very low activity | 
COc1nccnc1SCC1CN(C)C2Cc3cn(C)c4cccc(c34)C2(OC)C1 (stereo not drawn) [355/918, 2-(10'-methoxy-1',6'-dimethylergoline-8'β-methyl)thio-3-methoxypyrazine] |  |  |  |  |  |  |  |  |  |  |  |  | very strong activity | inhibition at 25 µg/mL (Oryctolagus cuniculus, 25 γ/ml, 90 seconds after ADP (2.2 × 10^-4)): 25%; inhibition at 25 µg/mL (Oryctolagus cuniculus, 25 γ/ml, 180 seconds after ADP (2.2 × 10^-4)): 20%; inhibition at 25 µg/mL (Oryctolagus cuniculus, 25 γ/ml, 360 seconds after ADP (2.2 × 10^-4)): 26%; inhibition at 50 µg/mL (Oryctolagus cuniculus, 50 γ/ml, 90 seconds after ADP (2.2 × 10^-4)): 45%; inhibition at 50 µg/mL (Oryctolagus cuniculus, 50 γ/ml, 180 seconds after ADP (2.2 × 10^-4)): 31%; inhibition at 50 µg/mL (Oryctolagus cuniculus, 50 γ/ml, 360 seconds after ADP (2.2 × 10^-4)): 42%; inhibition at 100 µg/mL (Oryctolagus cuniculus, 100 γ/ml, 90 seconds after ADP (2.2 × 10^-4)): 80%; inhibition at 100 µg/mL (Oryctolagus cuniculus, 100 γ/ml, 180 seconds after ADP (2.2 × 10^-4)): 70%; inhibition at 100 µg/mL (Oryctolagus cuniculus, 100 γ/ml, 360 seconds after ADP (2.2 × 10^-4)): 80%; inhibition at 200 µg/mL (Oryctolagus cuniculus, 200 γ/ml, 90 seconds after ADP (2.2 × 10^-4)): 100%; inhibition at 200 µg/mL (Oryctolagus cuniculus, 200 γ/ml, 180 seconds after ADP (2.2 × 10^-4)): 100%; inhibition at 200 µg/mL (Oryctolagus cuniculus, 200 γ/ml, 360 seconds after ADP (2.2 × 10^-4)): 100%; IC50 (Oryctolagus cuniculus, inhibition of platelet aggregation, at all three times, read-out: ED50 (the source's name)): 55 to 70 µg/mL (≈ 130 to 165 µM)
CO[C@]12C[C@@H](CNc3nccnc3Cl)CN(C)[C@@H]1Cc1cn(C)c3cccc2c13 [355/898, 2-(10'methoxy-1',6'-dimethylergoline-8'β-methyl)amino-3-chloropyrazine] | 17 | 20 | 30 | 35 | 31 | 45 | 67 | 71 | 76 | 77 | 82 | 83 |  | 
CO[C@]12C[C@@H](CNc3cncc(Cl)n3)CN(C)[C@@H]1Cc1cn(C)c3cccc2c13 [355/900, 2-(10'-methoxy-1',6'-dimethylergoline-8'β-methyl)amino-6-chloropyrazine] | 10 | 10 | 10 | 40 | 25 | 30 | 80 | 70 | 80 | 100 | 100 | 100 | very strong activity | ED50 [13]: 55 to 70 µg/mL
COc1nccnc1NC[C@H]1CN(C)[C@@H]2Cc3cn(C)c4cccc(c34)[C@@]2(OC)C1 [355/899, 2-(10'-methoxy-1',6'-dimethylergoline-8'β-methyl)amino-3-methoxypyrazine] |  |  |  | 10 | 9 | 10 | 30 | 30 | 30 | 60 | 61 | 61 |  | 
